Measured values reported in patent US10035795B1, “Phenothiazine derivatives having CaM inhibitory activity” (KOREA INSTITUTE OF SCIENCE AND TECHNOLOGY, priority 2017, dated 2018).

Key:
Assay type in all cases: cell-based
U87MG cells = assay: Calcium imaging (Ca2+ imaging): change in the calcium level of the cells, Fura-2 340/380 ratio; conditions: 100 μM in HEPES buffer, average 340/380 ratio reactivity for 200 seconds relative to TFP (trifluoperazine) as 100%
Method: Calcium Imaging (Ca^2+ Imaging)
Calcium imaging was conducted as follows in order to measure the change in the calcium level in […] (glioblastoma cells) by TFP (trifluoperazine) and the phenothiazine derivative represented by Chemical Formula 1 according to the present invention. First, after placing a polylysine (PDL)-coated coverslip on a 24-well plate, 2×10^4 U87MG cells detached by treating with trypsin were seeded thereupon. On the next day, the coverslip was incubated at room temperature for 1 hour in a Fura-2 solution (5 μM Fura-2 AM, 1 μM pluronic acid in HEPES buffer, pH 7.4) and washed twice with a HEPES buffer (10 mM HEPES, 150 mM NaCl, 3 mM KCl, 2 mM CaCl2, 1 mM MgCl2, 22 mM sucrose, 10 mM glucose, pH 7.4). The washed coverslip was mounted in a bath adapter (bath adapter) and placed under a calcium imaging microscope (Olympus IX71). After connecting a bath line to the bath adapter, the change in the calcium level of the cells was recorded for 300 seconds (4-second intervals; 340 nm, 380 nm, 340/380 nm ratio) by running a calcium imaging program (Imaging Workbench 6.0, Indec Inc.). After flowing a HEPES buffer for 50 seconds for setting of the baseline, a TFP (trifluoperazine) solution or solution of the phenothiazine derivative represented by Chemical Formula 1 (100 μM in HEPES buffer) were flown as test solutions for 100 seconds and then a HEPES buffer was flown again for 150 seconds. All the test solutions were prepared by diluting a 50 mM stock solution to 100 μM with a HEPES buffer. For analysis of the change of intracellular calcium level by the phenothiazine derivative represented by Chemical Formula 1, data files were read using a calcium imaging analysis program (Clampfit 9.2, Axon Inc.) and only the 340/380 ratio values were taken. The values recorded for the first 50 seconds were set to “0” and graphs were rearranged. Then, the average reactivity to the phenothiazine derivative represented by Chemical Formula 1 for 200 seconds was calculated relative to the average reactivity to TFP (trifluoperazine) for 200 seconds as 100%.

lung cancer = assay: cell viability assay, colony formation assay and soft agar colony formation assay
Excerpt: (§1) TFP is a phenothiazine-based compound mainly used as an antipsychotic [see patent document 1]. Antipsychotics are psychiatric drugs primarily used to manage psychosis such as schizophrenia, bipolar disorder, etc. and also to manage non-psychiatric disorder such as sleep. The antipsychotics tend to block receptors in the brain's dopamine pathways but cover a wide range of drug targets. […] Based on this, cell viability assay, matrigel invasion assay, colony formation assay and soft agar colony formation assay were conducted to investigate whether TFP suppresses lung cancer.

cancer cells = assay: matrigel invasion assay
Excerpt: as §1

SMILES	Reactivity (%) (U87MG cells)	migration and proliferation of lung cancer (lung cancer)	invasion of cancer cells (cancer cells)
FC(F)(F)c1ccc2c(c1)N(CCCCN1CCC(N3CCOCC3)CC1)c1ccccc1S2 [Example 41, 4-(1-(4-(2-(trifluoromethyl)-10H-phenothiazine;-10-yl)butyl)piperidin-4-yl)morpholine]	120	–	–
FC(F)(F)c1ccc2c(c1)N(CCCCN1CCC(N3CCCC3)CC1)c1ccccc1S2 [Example 42, 10-(4-(4-(pyrrolidin-1-yl)piperidin-1-yl)butyl)-2-(trifluoromethyl)-10H-phenothiazine]	134	–	–
FC(F)(F)c1ccc2c(c1)N(CCCCN1CCC(N3CCCCC3)CC1)c1ccccc1S2 [Example 43, 10-(4-(1,4′-bipiperidin-1′-yl)butyl)-2-(trifluoromethyl)-10H-phenothiazine]	123	–	–
CSc1ccc2c(c1)N(CCCCN1CCC(N3CCCC3)CC1)c1ccccc1S2 [Example 52, 2-(methylthio)-10-(4-(4-(pyrrolidin-1-yl)piperidin-1-yl)butyl)-10H-phenothiazine]	150	–	–
CSc1ccc2c(c1)N(CCCN1CCC(N3CCCC3)CC1)c1ccccc1S2 [Example 55, 2-(methylthio)-10-(3-(4-(pyrrolidin-1-yl)piperidin-1-yl)propyl)-10H-phenothiazine]	114	–	–
Clc1ccc2c(c1)N(CCCN1CCC(N3CCCCC3)CC1)c1ccccc1S2 [Example 69, 10-(3-(1,4′-bipiperidin-1′-yl)propyl)-2-chloro-10H-phenothiazine]	124	–	–
CSc1ccc2c(c1)N(CCCCN1CCC(N3CCCCC3)CC1)c1ccccc1S2 [Example 72, 10-(4-(1,4′-bipiperidin-1′-yl)butyl)-2-(methylthio)-10H-phenothiazine]	131	–	–
CC1CCN(CCCCN2c3ccccc3Sc3ccc(F)cc32)CC1 [Example 76, 2-fluoro-10-(4-(4-methylpiperidin-1-yl)butyl)-10H-phenothiazine]	110	–	–
Fc1ccc2c(c1)N(CCCCN1CCC(N3CCCC3)CC1)c1ccccc1S2 [Example 77, 2-fluoro-10-(4-(4-(pyrrolidin-1-yl)piperidin-1-yl)butyl)-10H-phenothiazine]	149	–	–
CN1CCN(CCCN2c3ccccc3Sc3ccc(C(F)(F)F)cc32)CC1 [TFP, trifluoperazine]	100	suppresses the migration and proliferation of lung cancer	inhibits the invasion of cancer cells
